This passage reports IC50 results from patent publication US10085986B2, “Pyrimidinone compounds and their use” (Takeda Pharmaceutical Company Limited, priority 2011, dated 2018).

The target in this assay is Human DAAO Enzyme (Homo sapiens (Human), UniProt P14920). Put plainly: In vitro DAAO enzyme assay (Amplex Red detection of H2O2 from D-Serine). The note with it: inhibition of DAAO activity in the presence of 10 mM D-Serine; 60 minutes at 25° C. In kind it is biochemical. The protocol: The functional activity of compounds inhibiting the DAAO enzyme was determined by utilizing the co-product of the catalysis of D-Serine, H2O2 which can be quantitatively measured using the Amplex Red (Invitrogen) detection. Amplex® Red reagent is a colorless substrate that reacts with hydrogen peroxide (H2O2) with a 1:1 stoichiometry in the presence of […] to produce highly fluorescent resorufin (excitationemission maxima=570/585 nm). The changes in fluorescence were monitored by a fluorescence plate reader, Envision (Perkin Elmer) and increases in DAAO activity were readily detected upon addition of D-Serine and suppression of this response observed with the application of test compounds.
The Km of D-Serine was measured for each enzyme batch to maintain consistency; this Km was used in subsequent assays.
On the day of the assay compounds were serially diluted in DMSO before being diluted 1:20 with assay buffer (20 mM Tris ph 7.4). A 5 μl portion of assay buffer was added to the wells of a 384 clear base black walled plate (Corning), 5 μl of diluted compound was then added via automated plate to plate transfer using the Bravo liquid handler (Agilent technologies) followed by 5 μl of human DAAO enzyme and then 5 μl D-Serine 50 mM was added to all but the negative control wells (final concentration of 10 mM). Finally 5 μl Amplex red reagent (Invitrogen) was added to all wells as per manufacturer's protocol. The plate was incubated for 60 minutes in the dark at 25° C. and the fluorescence in each well was measured in the Envision plate reader.
The IC50 values for compounds were determined from ten point half log scale dose-response studies and represent the concentration of compound required to […] 50% inhibition of DAAO activity in the presence of 10 mM D-Serine. Concentration response curves were generated using the average of duplicate wells for each data point and analyzed using nonlinear regression and four parameter curve fit.

SMILES strings stand for the structures.

Human DAAO Enzyme, sequence (P14920 whole entry): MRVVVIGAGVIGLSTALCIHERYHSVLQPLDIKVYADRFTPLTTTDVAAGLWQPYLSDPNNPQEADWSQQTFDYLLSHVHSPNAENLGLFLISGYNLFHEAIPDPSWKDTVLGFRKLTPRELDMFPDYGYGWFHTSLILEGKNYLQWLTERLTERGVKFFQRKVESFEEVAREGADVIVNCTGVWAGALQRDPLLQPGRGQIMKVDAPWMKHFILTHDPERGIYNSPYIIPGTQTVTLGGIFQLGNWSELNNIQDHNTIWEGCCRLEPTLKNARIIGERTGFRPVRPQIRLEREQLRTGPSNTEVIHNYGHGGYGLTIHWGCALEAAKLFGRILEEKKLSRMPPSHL

Consider `Cc1nc(-c2cccc(CSc3ncc(O)c(=O)[nH]3)c2)no1` [Example 12, 5-Hydroxy-2-{[3-(5-methyl-1,2,4-oxadiazol-3-yl)benzyl]-sulfanyl}-pyrimidin-4(3H)-one], for which the IC50 came out at 500 nM.

In the case of `O=c1[nH]c(SCc2cccc3c2OCCO3)ncc1O` [Example 16, 2-[(2,3-Dihydro-1,4-benzodioxin-5-ylmethyl)sulfanyl]-5-hydroxypyrimidin-4(3H)-one], the IC50 came out at 540 nM.

Regarding `O=c1[nH]c(SCc2ccccc2)ncc1O` [Example 2, 2-(Benzylsulfanyl)-5-hydroxypyrimidin-4(3H)-one], the IC50 amounted to 230 nM.

In the case of `O=c1[nH]c(CSc2ccccc2)ncc1O` [Example 30, 5-Hydroxy-2-[(phenylsulfanyl)methyl]pyrimidin-4(3H)-one], the IC50 came to 2800 nM.

For the compound `O=c1[nH]c(SCc2cccc(C(F)(F)F)c2)ncc1O` [Example 10, 5-Hydroxy-2-{[3-(trifluoromethyl)benzyl]sulfanyl}pyrimidin-4(3H)-one], the IC50 amounted to 150 nM.

`O=c1[nH]c(SCc2ccc(Cl)cc2)ncc1O` [Example 4, 2-[(4-Chlorobenzyl)sulfanyl]-5-hydroxypyrimidin-4(3H)-one]: the IC50 worked out at 220 nM.

As to `O=c1[nH]c(SCc2cccc(F)c2)ncc1O` [Example 6, 2-[(3-Fluorobenzyl)sulfanyl]-5-hydroxypyrimidin-4(3H)-one], the IC50 came out at 170 nM.

For `O=c1[nH]c(SCc2cccc(OC(F)F)c2)ncc1O` [Example 18, 2-(3-(Difluoromethoxy)benzylthio)-5-hydroxypyrimidin-4(3H)-one], the half-inhibitory concentration (IC50) amounted to 190 nM.

With `Cc1cc(CSc2ncc(O)c(=O)[nH]2)n(C)n1` [Example 21, 2-((1,3-Dimethyl-1H-pyrazol-5-yl)methylthio)-5-hydroxypyrimidin-4(3H)-one], the half-inhibitory concentration (IC50) worked out at 1600 nM.

Take `COc1cccc(CSc2ncc(O)c(=O)[nH]2)c1` [Example 9, 5-Hydroxy-2-[(3-methoxybenzyl)sulfanyl]pyrimidin-4(3H)-one]: the IC50 is 160 nM.

Take `CC(Sc1ncc(O)c(=O)[nH]1)c1ccccc1` (stereo not shown) [Example 14, 5-Hydroxy-2-[(1-phenylethyl)sulfanyl]pyrimidin-4(3H)-one]: the IC50 amounted to 1200 nM.

As for `O=c1[nH]c(SCc2ccc3ccccc3c2)ncc1O` [Example 5, 5-Hydroxy-2-[(naphthalen-2-ylmethyl)sulfanyl]pyrimidin-4(3H)-one], the IC50 stood at 120 nM.

Turning to `O=c1[nH]c(SCc2ccc3nccn3c2)ncc1O` [Example 26, 5-Hydroxy-2-[(imidazo[1,2-a]pyridin-6-ylmethyl)sulfanyl]-pyrimidin-4(3H)-one], the half-maximal inhibitory concentration (IC50) stood at 740 nM.

Take `O=c1[nH]c(COc2ccccc2)ncc1O` [Example 31, 5-Hydroxy-2-(phenoxymethyl)pyrimidin-4(3H)-one]: the IC50 amounted to 3200 nM.

Turning to `O=c1[nH]c(SCc2cccnc2)ncc1O` [Example 20, 5-Hydroxy-2-(pyridin-3-ylmethylthio)pyrimidin-4(3H)-one], the concentration for half-maximal inhibition (IC50) amounted to 470 nM.

Take `O=c1[nH]c(SCc2ccccc2)nc(C(F)(F)F)c1O` [Example 34, 2-(Benzylsulfanyl)-5-hydroxy-6-(trifluoromethyl)pyrimidin-4(3H)-one]: the 50% inhibitory concentration (IC50) came out at 2700 nM.

Take `O=c1[nH]c(SCc2cc(F)cc(Cl)c2)ncc1O` [Example 11, 2-[(3-Chloro-5-fluorobenzyl)sulfanyl]-5-hydroxypyrimidin-4(3H)-one]: the 50% inhibitory concentration (IC50) worked out at 150 nM.

Consider `O=c1[nH]c(SCc2cccc(Cl)c2)ncc1O` [Example 1, 2-(3-Chlorobenzylthio)-5-hydroxypyrimidin-4(3H)-one], for which the IC50 is 120 nM.

For `O=c1[nH]c(CCc2ccccc2)ncc1O` [Example 33, 5-Hydroxy-2-(2-phenylethyl)pyrimidin-4(3H)-one], the IC50 came out at 1200 nM.

What is called IC50 is the concentration that inhibits the measured activity by half.
